In patent US10398725B2, “Ophthalmic compositions and methods of use” (Veloce BioPharma, LLC, priority 2015, dated 2019):

Legend:
Format in all cases: in vivo, human
[1] = system: eyelid associated molluscum contagiosum; assay: Example 21: patient with eyelid molluscum contagiosum; conditions: before the PVP-I/DMSO composition
Description: Eyelid Molluscum Contagiosum; Treated with 9% PVP-I in 39% USP Grade DMSO with 3% Hydroxyethylcellulose
This patient was suffering from an eyelid associated molluscum contagiosum. […] The process is often associated with pox virus infection of the epithelial layers. […] Cryotherapy with excision was eventually performed, however, the lesions recurred. Prepared was a composition as disclosed herein using 0.9% PVP-I in 39% DMSO with hydroxyethyl cellulose. The patient was treated by applying the solution topically to the eyelid and margin structures four times daily. […] The lesions had begun to involute and diminish in surface area.

[2] = system: Acanthamoeba corneal ulceration; assay: Example 16: patient with Acanthamoeba corneal ulceration; conditions: before the PVP-I/DMSO composition
Excerpt: Acanthamoeba Corneal Ulceration; Treated with Aqueous 0.4% PVP-I in 39% USP Grade DMSO with Hydroxyethyl Cellulose
This patient was suffering from an Acanthamoeba corneal ulceration. In this type of infection there is often a history of contact lens use and home-made contact lens solutions, however, this is not a prerequisite. Acanthamoeba parasites are often introduced into the eye through a small break in the epithelium and gains foothold to the underlying structures. The patient endorses pain out of proportion with examination. […] The cornea contained multiple bullous lesions with enlarged corneal nerves. There was an overlying epithelial defect and faint ring-shaped infiltrate. The infiltrate had induced minimal stromalysis and the resultant cornea was not thinned. There was no hypopyon, however, cell and flare were present. Corneal cultures were taken, and Acanthamoeba species were identified on non-nutrient agar with E. coli overlay. […] Prepared was a composition as disclosed herein using 0.4% PVP-I in 39% DMSO with hydroxyethyl cellulose. The patient was treated by applying the solution topically to the eye six times daily. […] The corneal had begun the process of re-epithelialization and the ring ulcer began to lessen in intensity. […] A central corneal cicatrix was evident in the area of previous active infiltrate.

[3] = system: rosacea blepharoconjunctivitis; assay: Example 3B: person with rosacea blepharoconjunctivitis; conditions: before the PVP-I/DMSO gel
Excerpt: B. Rosacea Blepahritis; Treated with 1% PVP-I in 44% USP Grade DMSO with 4% Hydroxyethylcellulose in Water
A person with a past ocular history of glaucoma and pseudophakia presented with long standing ocular dryness, grittiness, periocular erythema and eyelid crusting. On facial inspection, nasal and facial telangiectasia with flushing were evident. Their topical medical regimen included Latanoprost 1 drop QHS OU, Brimonidine 1 drop BID OU, and Dorzolamide/Timolol 1 drop BID OU. The patient endorsed utilization of a variety of medicines and treatments to abate this condition, however, they were of little benefit. Failed therapies included topical steroids, antibiotics including azithromycin, combination medicines, and cyclosporine. Oral medicines including doxycycline and DHA/ALA/EPA were also ineffective.
Further towards the posterior tarsal area, dilated, engorged telangiectatic vessels were present. […] A diagnosis of rosacea blepharoconjunctivitis was made.
The patient was given a topical gel of 1% PVP-I in a dimethylsulfoxide (DMSO) vehicle that was prepared from a licensed compounding pharmacy. The treatment was administered twice daily and delivered by rubbing the gel onto the lash line and eyelid. […] Most prominently, much of the conjunctivitis, anterior lid erythema and thickening had reversed. […]

SMILES	outcome of earlier therapies (patient history) [1]	outcome of earlier therapies (patient history) [2]	also measured
CC(C)Cn1cnc2c(N)nc3ccccc3c21 [imiquimod]	without benefit	–	–
[H]/N=C(\N/C(=N/[H])NCCCCCCNC(=N)NC(=N)Nc1ccc(Cl)cc1)Nc1ccc(Cl)cc1 [chlorhexidine]	–	without benefit	–
CC[C@H]1OC(=O)[C@H](C)[C@@H](O[C@H]2C[C@@](C)(OC)[C@@H](O)[C@H](C)O2)[C@H](C)[C@@H](O[C@@H]2O[C@H](C)C[C@H](N(C)C)[C@H]2O)[C@](C)(O)C[C@@H](C)CN(C)[C@H](C)[C@@H](O)[C@]1(C)O [azithromycin]	–	–	outcome of earlier therapies (patient history) [3]: Failed
N=C(N)c1ccc(OCCCOc2ccc(C(=N)N)cc2)cc1 [propamidine]	–	without benefit	–
O=C(O)c1ccccc1O [salicylic acid]	without benefit	–	–
